Measured values as given in US5210193A, “Piperazine derivatives” (American Cyanamid Company, priority 1990, dated 1993).
≈ marks a conversion by molar mass, not a printed value.

What was measured:
Test in all cases: in vitro antibacterial MIC, agar plate dilution
Type in all cases: cell-based
[1] = test system: Morganella morganii VGH 84-11; details: VGH8411, 18 hours, 35° C., read-out: MIC
Summary of the method: (§1)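 Agar plate dilution on Mueller-Hinton agar, inoculum approximately 10^4 CFU per organism applied with a Steers replicator. MIC (mcg/ml) is the lowest compound concentration inhibiting visible growth after 18 hours at 35° C.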

[2] = test system: Staphylococcus aureus ATTC 29213; details: Staphylococcus aureus, ATTC29213, 18 h, 35° C., read-out: MIC
Summary of the method: as §1

[3] = test system: Klebsiella oxytoca MOR 84-28; details: MOR8428, 18 hours, 35° C.
Summary of the method: as §1

[4] = test system: Escherichia coli PRNT 311; details: PRNT311, 18 hours, 35° C., read-out: MIC
Summary of the method: as §1

[5] = test system: Escherichia coli CMC 84-11; details: Escherichia coli, CMC8411, 18 h, 35° C., read-out: MIC
Summary of the method: as §1

[6] = test system: Streptococcus faecalis ATTC 29212; details: Enterococcus faecalis, ATTC29212, 18 hours, 35° C., read-out: MIC
Summary of the method: as §1

[7] = test system: Enterobacter cloacae K 84-10; details: Enterobacter cloacae, K8410, 18 h, 35° C., read-out: MIC
Summary of the method: as §1

[8] = test system: Staphylococcus aureus CMC 83-127; details: Staphylococcus aureus, CMC83127, 18 h, 35° C., read-out: MIC
Summary of the method: as §1

[9] = test system: Pseudomonas aeruginosa LL-1244; details: Pseudomonas aeruginosa, LL1244, 18 h, 35° C., read-out: MIC
Summary of the method: as §1

[10] = test system: Staphylococcus epidermidis VGH 84-40; details: VGH8440, 18 hours, 35° C., read-out: MIC
Summary of the method: as §1

[11] = test system: Staphylococcus aureus CMC 83-128; details: CMC83128, 18 hours, 35° C., read-out: MIC
Summary of the method: as §1

[12] = test system: Escherichia coli CMC 84-16; details: Escherichia coli, CMC8416, 18 h, 35° C., read-out: MIC
Summary of the method: as §1

[13] = test system: Pseudomonas aeruginosa VGH 84-4; details: Pseudomonas aeruginosa, VGH844, 18 h, 35° C., read-out: MIC
Summary of the method: as §1

[14] = test system: Staphylococcus aureus ATCC 25913; details: ATCC25913, 18 hours, 35° C.
Summary of the method: as §1

[15] = test system: Staphylococcus aureus Smith; details: Staphylococcus aureus, 18 h, 35° C., read-out: MIC
Summary of the method: as §1

[16] = test system: Serratia marcescens K 84-18; details: Serratia marcescens, K8418, 18 h, 35° C., read-out: MIC
Summary of the method: as §1

[17] = test system: Enterobacter cloacae VGH 84-37; details: Enterobacter cloacae, VGH8437, 18 h, 35° C., read-out: MIC
Summary of the method: as §1

Klebsiella pneumoniae AD = details: Klebsiella pneumoniae, 18 h, 35° C., read-out: MIC
Summary of the method: as §1

[18] = test system: Acinetobacter calcoaceticus MOR 84-43; details: MOR8443, 18 hours, 35° C., read-out: MIC
Summary of the method: as §1

[19] = test system: Staphylococcus epidermidis IO 83-58; details: IO8358, 18 hours, 35° C., read-out: MIC
Summary of the method: as §1

[20] = test system: Morganella morganii CMC 84-37; details: Morganella morganii, CMC8437, 18 h, 35° C., read-out: MIC
Summary of the method: as §1

[21] = test system: Staphylococcus aureus VGH 84-46; details: Staphylococcus aureus, VGH8446, 18 h, 35° C., read-out: MIC
Summary of the method: as §1

[22] = test system: Staphylococcus Spp saprophiticus VGH 84-50; details: 18 hours, 35° C., read-out: MIC
Summary of the method: as §1

[23] = test system: Staphylococcus epidermidis CMC 83-135; details: CMC83135, 18 hours, 35° C., read-out: MIC
Summary of the method: as §1

[24] = test system: Escherichia coli ATCC 25922; details: Escherichia coli, ATCC25922, 18 h, 35° C., read-out: MIC
Summary of the method: as §1

[25] = test system: Staphylococcus aureus VGH 84-45; details: Staphylococcus aureus, VGH8445, 18 h, 35° C., read-out: MIC
Summary of the method: as §1

[26] = test system: Serratia marcescens F 0-35; details: Serratia marcescens, F035, 18 h, 35° C., read-out: MIC
Summary of the method: as §1

[27] = test system: Enterobacter aerogenes VGH 84-36; details: Klebsiella aerogenes, VGH8436, 18 hours, 35° C., read-out: MIC
Summary of the method: as §1

Escherichia coli NAR 311 = details: NAR311, 18 hours, 35° C., read-out: MIC
Summary of the method: as §1

[28] = test system: Proteus rettgeri CMC 84-41; details: Providencia rettgeri, CMC8441, 18 h, 35° C., read-out: MIC
Summary of the method: as §1

[29] = test system: Klebsiella pneumoniae MOR 84-4; details: Klebsiella pneumoniae, MOR844, 18 h, 35° C., read-out: MIC
Summary of the method: as §1

[30] = test system: Streptococcus faecalis VGH 84-65; details: Enterococcus faecalis, VGH8465, 18 h, 35° C., read-out: MIC
Summary of the method: as §1

CCn1cc(C(=O)O)c(=O)c2cc(F)c(N3CCNC(c4ccco4)C3)cc21 (stereo not shown) [Example 28, 1-Ethyl-6-fluoro-7-[3-(2-furanyl)-1-piperazinyl]-1,4-dihydro-4-oxo-3-quinolinecarboxylic acid]
MIC [1]: 0.25 µg/mL (≈ 0.649 µM)
MIC [2]: 0.25 µg/mL (≈ 0.649 µM)
MIC [3]: 0.5 µg/mL (≈ 1.3 µM)
MIC [4]: 0.5 µg/mL (≈ 1.3 µM)
MIC [5]: ≤ 0.12 µg/mL
MIC [6]: 2 µg/mL (≈ 5.19 µM)
MIC [7]: 0.25 µg/mL (≈ 0.649 µM)
MIC [8]: ≤ 0.06 µg/mL
MIC [9]: 32 µg/mL (≈ 83 µM)
MIC [10]: ≤ 0.12 µg/mL
MIC [11]: ≤ 0.12 µg/mL
MIC [12]: ≤ 0.12 µg/mL
MIC [13]: 4 µg/mL (≈ 10.4 µM)
MIC [14]: ≤ 0.12 µg/mL
MIC [15]: ≤ 0.12 µg/mL
MIC [16]: 1 µg/mL (≈ 2.59 µM)
MIC [17]: ≤ 0.12 µg/mL
MIC (Klebsiella pneumoniae AD): ≤ 0.12 µg/mL
MIC [18]: 2 µg/mL (≈ 5.19 µM)
MIC [19]: 0.25 µg/mL (≈ 0.649 µM)
MIC [20]: 0.25 µg/mL (≈ 0.649 µM)
MIC [21]: ≤ 0.12 µg/mL
MIC [22]: 1 µg/mL (≈ 2.59 µM)
MIC [23]: ≤ 0.12 µg/mL
MIC [24]: ≤ 0.12 µg/mL
MIC [25]: ≤ 0.06 µg/mL
MIC [26]: 1 µg/mL (≈ 2.59 µM)
MIC [27]: 0.5 µg/mL (≈ 1.3 µM)
MIC (Escherichia coli NAR 311): 4 µg/mL (≈ 10.4 µM)
MIC [28]: 0.25 µg/mL (≈ 0.649 µM)
MIC [29]: 0.25 µg/mL (≈ 0.649 µM)
MIC [30]: 2 µg/mL (≈ 5.19 µM)

CCn1cc(C(=O)O)c(=O)c2cc(F)c(N3CCN(C)C(c4cc5cc(Cl)ccc5o4)C3)cc21 (stereo not shown) [Example 55, 7-[3-(5-Chloro-2-benzofuranyl)-4-methyl-1-piperazinyl]-1-ethyl-6-fluoro-1,4-dihydro-4-oxo-3-quinolinecarboxylic acid]
MIC [1]: > 256 µg/mL
MIC [2]: 64 µg/mL (≈ 132 µM)
MIC [3]: > 256 µg/mL
MIC [4]: > 256 µg/mL
MIC [5]: > 256 µg/mL
MIC [6]: > 256 µg/mL
MIC [7]: > 256 µg/mL
MIC [8]: 8 µg/mL (≈ 16.5 µM)
MIC [9]: > 256 µg/mL
MIC [10]: 32 µg/mL (≈ 66.1 µM)
MIC [11]: 16 µg/mL (≈ 33.1 µM)
MIC [12]: > 256 µg/mL
MIC [13]: > 256 µg/mL
MIC [15]: 16 µg/mL (≈ 33.1 µM)
MIC [16]: > 256 µg/mL
MIC [17]: > 256 µg/mL
MIC (Klebsiella pneumoniae AD): > 256 µg/mL
MIC [18]: > 256 µg/mL
MIC [19]: 128 µg/mL (≈ 265 µM)
MIC [20]: > 256 µg/mL
MIC [21]: 32 µg/mL (≈ 66.1 µM)
MIC [22]: > 256 µg/mL
MIC [23]: 64 µg/mL (≈ 132 µM)
MIC [24]: > 256 µg/mL
MIC [25]: 16 µg/mL (≈ 33.1 µM)
MIC [26]: > 256 µg/mL
MIC [27]: > 256 µg/mL
MIC (Escherichia coli NAR 311): > 256 µg/mL
MIC [28]: > 256 µg/mL
MIC [29]: > 256 µg/mL
MIC [30]: > 256 µg/mL

CCn1cc(C(=O)O)c(=O)c2cc(F)c(N3CCN(C)C(c4sc5ccccc5c4C)C3)cc21 (stereo not shown) [Example 54, 1-Ethyl-6-fluoro-1,4-dihydro-7-[4-methyl-3-(3-methyl-benzo[b]thien-2-yl)-1-oiperazinyl]-4-oxo-3-quinolinecarboxylic acid]
MIC [1]: > 256 µg/mL
MIC [2]: 256 µg/mL (≈ 534 µM)
MIC [3]: > 256 µg/mL
MIC [4]: > 256 µg/mL
MIC [5]: > 256 µg/mL
MIC [6]: > 256 µg/mL
MIC [7]: > 256 µg/mL
MIC [8]: 32 µg/mL (≈ 66.7 µM)
MIC [9]: > 256 µg/mL
MIC [10]: > 256 µg/mL
MIC [11]: 64 µg/mL (≈ 133 µM)
MIC [12]: > 256 µg/mL
MIC [13]: > 256 µg/mL
MIC [15]: 64 µg/mL (≈ 133 µM)
MIC [16]: > 256 µg/mL
MIC [17]: > 256 µg/mL
MIC (Klebsiella pneumoniae AD): > 256 µg/mL
MIC [18]: > 256 µg/mL
MIC [19]: > 256 µg/mL
MIC [20]: > 256 µg/mL
MIC [21]: > 256 µg/mL
MIC [22]: > 256 µg/mL
MIC [23]: > 256 µg/mL
MIC [24]: > 256 µg/mL
MIC [25]: 256 µg/mL (≈ 534 µM)
MIC [26]: > 256 µg/mL
MIC [27]: > 256 µg/mL
MIC (Escherichia coli NAR 311): > 256 µg/mL
MIC [28]: > 256 µg/mL
MIC [29]: > 256 µg/mL
MIC [30]: > 256 µg/mL
